Patent US9895337B2, “Compositions containing monoacetyldiacylglycerol compound as an active ingredient for preventing or treating rheumatoid arthritis” (ENZYCHEM LIFESCIENCES CORPORATION, priority 2013, dated 2018)

Assays:
STAT-1 = test: Inhibition of PMA-induced STAT-1 phosphorylation in NK-92 cells (western blot); format: cell-based, Human; settings: PMA-induced (FIG. 2B)
Experimental: Human cell lines NK-92, U937, A549 and HepG2 (American Type Culture Collection, ATCC, Rockville, Md.) were cultured at 37° C. under 5% CO2 humid conditions. NK-92 cells were cultured in alpha-MEM media (Life Technologies, Karlsruhe, Germany) containing 10% Fetal Calf Serum (FCS, HyClone, Logan, Utah), 2 mM […], 100 μg/ml penicillin, 100 μg/ml streptomycin (Life Technologies). U937, A549 and HepG2 cells were cultured in RPMI media containing 10% Fetal Calf Serum.
Cells treated in EC-18 and PMA (Phobol 12-myristate 13-acetate) were lysed with cold SDS lysis buffer [(50 mM HEPES, 150 mM NaCl, 0.2 mM EDTA, 0.5% NP-40, 0.1% SDS, 1 mM Na3VO4, 10 mM NaF, and complete Protein Inhibitor Cocktail (Roche)] for 30 minutes on ice. After cell lysis, the aqueous solution was separated from the insoluble precipitate by centrifuging the cell lysates for 30 minutes at 13,000 rpm in a high-speed centrifuge. After protein quantification, the aqueous solution was separated in 10 to 12% SDS-PAGE by electrophoresis. Proteins separated in the gel were transferred into PVDF membrane (Millipore, Billerica, Mass., USA) at 100V for 2 hours. […]

[1] = test system: collagen-induced arthritis in male DBA/1J mouse; test: Arthritis animal model induced by bovine type II collagen; format: in vivo; settings: for histopathological arthritis score of knee joint: knee joint of both hind legs, vs negative control (FIG. 6); for histopathological arthritis score of knee joint / concentration of IL-6 in serum: EC-18 125, 500, 2,000 mg/kg oral, Remicade 20 mg/kg i.p., methotrexate 2.5 mg/kg oral; for concentration of IL-6 in serum: serum at day of tissue excision, once a day for five weeks, vs negative control (FIG. 4)
Experimental: For arthritis animal model experiment, arthritis was induced in male DBA/1J mouse by administering bovine type II collagen to the mouse. Efficacy of EC-18 for treating (or improving) arthritis was evaluated by repeatedly administering EC-18 to the mouse orally. For comparison, Remicade (positive control 1) was administered intraperitoneally and methotrexate (positive control 2) was administered orally. The experiment included seven groups: normal group (G1), negative control (G2), 125 mg/kg, 500 mg/kg and 2,000 mg/kg of EC-18 (EC-18 treatment groups, G3, G4, G5), 20 mg/kg of Remicade (Positive control 1, G6) and 2.5 mg/kg of Methotrexate (Positive control 2, G7). Each group consists of 10 mice. Olive oil was administered to normal group (G1) and negative control group (G2) as an excipient. In all groups, administration was made once a day for five weeks (a total of 35 administrations). Remicade (G6) was administered intraperitoneally, whereas EC-18, methotrexate and olive oil were administered orally in force. For all groups except normal Group (G1), arthritis was induced by immunizing animals twice with bovine type II collagen and complete Freund's adjuvant or incomplete Freund's adjuvant emulsion. During the observation period, common arthritis symptoms were observed once a day, weigh measured once a week, arthritic score evaluation made with the naked eye twice a week, foot thickness measured twice a week.

| Compound | STAT-1 phosphorylation (STAT-1) | histopathological arthritis score of knee joint [1] | concentration of IL-6 in serum [1] | crushing of cartilage and increase of Pannus (stained arthritic tissue) ([1]; EC-18 500 mg/kg oral (G4), Remicade 20 mg/kg i.p. (G6), vs negative control (FIGS. 7 and 8)) |
| --- | --- | --- | --- | --- |
| CCCCC/C=C\C/C=C\CCCCCCCC(=O)OC(COC(C)=O)COC(=O)CCCCCCCCCCCCCCC (stereo not drawn) [EC-18, 1-palmitoyl-2-linoleoyl-3-acetylglycerol] | does not inhibit | – | – | – |
| CN(Cc1cnc2nc(N)nc(N)c2n1)c1ccc(C(=O)N[C@@H](CCC(=O)O)C(=O)O)cc1 [Methothrexate, methotrexate] | – | reduced | reduced | – |
| Remicade: positive control 1, administered intraperitoneally at 20 mg/kg | – | reduced | reduced | reduced |
